In patent US9656971B2, “COMT inhibitors” (Hoffmann-La Roche Inc., priority 2012, dated 2017):
Counter-ions that a name gives are not always drawn. Like-named read-outs stand apart in the source and are kept apart here.

Molecular target: T1, Rec. human COMT (Homo sapiens, UniProt P21964)
T1 sequence (P21964 1-271): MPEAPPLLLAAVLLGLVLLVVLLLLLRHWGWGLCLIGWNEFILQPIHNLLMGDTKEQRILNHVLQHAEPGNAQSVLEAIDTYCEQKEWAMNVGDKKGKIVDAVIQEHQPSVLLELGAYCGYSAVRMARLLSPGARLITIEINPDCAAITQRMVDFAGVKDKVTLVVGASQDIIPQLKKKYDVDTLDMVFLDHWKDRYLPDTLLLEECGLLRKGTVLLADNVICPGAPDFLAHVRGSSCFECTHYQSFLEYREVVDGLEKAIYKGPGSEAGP
Test: COMT-Fluorescence Assay
Assay type: biochemical
Details: rec. human COMT 25 nM, 4-Nitrocatechol-Alexa488 200 nM, SAM 500 nM
Protocol: This intramolecular interaction is disturbed if the 4-Nitrocatechol is methylated. […] This increase of fluorescence intensity can be followed in a kinetic measurement. The slope in the linear range of the kinetic is calculated. An inhibitor compound decreases the slope.
Signal [rfu/min]=(rfu(end-point)−rfu(startpoint))/incubation_time_#2

[1] = COMT-fluorescence assay, read-out: IC50

| Structure (SMILES) | IC50 [1] | IC50 (IC50, COMT-fluorescence assay) |
| --- | --- | --- |
| O=c1[nH]cnc2c(O)cc(-c3ccccc3COCCN3CCOCC3)cc12 [Example 236, 8-Hydroxy-6-[2-(2-morpholin-4-yl-ethoxymethyl)-phenyl]-3H-quinazolin-4-one] | 20 nM | – |
| CC(C)N(Cc1ccccc1-c1cc(O)c2nc[nH]c(=O)c2c1)C(C)C [Example 218, 6-(2-((Diisopropylamino)methyl)phenyl)-8-hydroxyquinazolin-4(3H)-one] | 1400 nM | – |
| O=c1[nH]cnc2c(O)cc(-c3cccnc3O)cc12 [Example 180, 8-Hydroxy-6-(2-hydroxypyridin-3-yl)quinazolin-4(3H)-one] | 270 nM | – |
| CS(=O)(=O)c1ccc(Cl)c(-c2cc(O)c3nc[nH]c(=O)c3c2)c1 [Example 48, 6-(2-Chloro-5-methanesulfonyl-phenyl)-8-hydroxy-3H-quinazolin-4-one] | 50 nM | – |
| Cc1cc(C(=O)N2CCCCC2)sc1-c1cc(O)c2nc[nH]c(=O)c2c1 [Example 97, 8-Hydroxy-6-(3-methyl-5-(piperidine-1-carbonyl)thiophen-2-yl)quinazolin-4(3H)-one] | 10 nM | – |
| CCc1cc(O)c2nc[nH]c(=O)c2c1 [Example 10, 6-Ethyl-8-hydroxyquinazolin-4(3H)-one 2,2,2-trifluoroacetate] | – | 1090 nM |
| Cc1cn(C)c(-c2cc(O)c3nc[nH]c(=O)c3c2)n1 [Example 188, 6-(1,4-Dimethyl-1H-imidazol-2-yl)-8-hydroxyquinazolin-4(3H)-one] | 1270 nM | – |
| O=c1[nH]cnc2c(O)cc(Oc3ccc(F)cc3)cc12 [Example 189, 6-(4-Fluorophenoxy)-8-hydroxyquinazolin-4(3H)-one] | 840 nM | – |
| Cn1ncc2c(-c3cc(O)c4nc[nH]c(=O)c4c3)cccc21 [Example 156, 8-Hydroxy-6-(1-methyl-1H-indazol-4-yl)quinazolin-4(3H)-one] | 10 nM | – |
| Cc1ncc(-c2cc(O)c3nc[nH]c(=O)c3c2)n1C [Example 87, 6-(1,2-Dimethyl-1H-imidazol-5-yl)-8-hydroxyquinazolin-4(3H)-one] | 230 nM | – |
| CN(C)c1cccc(-c2cc(O)c3nc[nH]c(=O)c3c2)n1 [Example 183, 6-(6-(Dimethylamino)pyridin-2-yl)-8-hydroxyquinazolin-4(3H)-one] | 70 nM | – |
| O=c1[nH]cnc2c(O)cc(-c3ccc4ccccc4c3)cc12 [Example 169, 8-Hydroxy-6-(naphthalen-2-yl)quinazolin-4(3H)-one] | 40 nM | – |
| Cc1c(-c2cc(O)c3nc[nH]c(=O)c3c2)cnn1C [Example 206, 6-(1,5-Dimethyl-1H-pyrazol-4-yl)-8-hydroxyquinazolin-4(3H)-one] | 30 nM | – |
| O=c1[nH]cnc2c(O)c(F)c(-c3ccccc3)c(F)c12 [Example 38, 5,7-Difluoro-8-hydroxy-6-phenylquinazolin-4(3H)-one] | 30 nM | – |
| O=c1[nH]cnc2c(O)cc(-c3ccc(F)cc3)c([N+](=O)[O-])c12 [Example 252, 6-(4-Fluoro-phenyl)-8-hydroxy-5-nitro-3H-quinazolin-4-one] | 30 nM | – |
| O=c1[nH]cnc2c(O)cc(-c3cncs3)cc12 [Example 90, 8-Hydroxy-6-(thiazol-5-yl)quinazolin-4(3H)-one] | 20 nM | – |
| O=C(c1cccc(-c2cc(O)c3nc[nH]c(=O)c3c2)c1)N1CCOCC1 [Example 175, 8-Hydroxy-6-(3-(morpholine-4-carbonyl)phenyl)quinazolin-4(3H)-one] | 20 nM | – |
| N#CCc1ccccc1-c1cc(O)c2nc[nH]c(=O)c2c1 [Example 208, 2-(2-(8-Hydroxy-4-oxo-3,4-dihydroquinazolin-6-yl)phenyl)acetonitrile] | 50 nM | – |
| O=c1[nH]cnc2c(O)cc(C(O)c3ccccc3)cc12 (stereo not shown) [Example 67, 8-Hydroxy-6-(hydroxy(phenyl)methyl)quinazolin-4(3H)-one] | 7450 nM | – |

| Structure (SMILES) | IC50 [1] | IC50 (IC50, COMT-fluorescence assay) |
| --- | --- | --- |
| Cc1cc(-c2c(-c3ccc(F)cc3)cc(O)c3nc[nH]c(=O)c23)ccn1 [Example 58, 6-(4-Fluorophenyl)-8-hydroxy-5-(2-methylpyridin-4-yl)quinazolin-4(3H)-one] | 10 nM | – |
| O=c1[nH]cnc2c(O)cc(-c3cccc4cccnc34)cc12 [Example 167, 8-Hydroxy-6-(quinolin-8-yl)quinazolin-4(3H)-one] | 260 nM | – |
| O=c1[nH]cnc2c(O)cc(-c3cccc(CN4CCOCC4)c3)cc12 [Example 39, 8-Hydroxy-6-(3-(morpholinomethyl)phenyl)quinazolin-4(3H)-one 1:1 salt with trifluoroacetate] | 20 nM | – |
| O=c1[nH]cnc2c(O)ccc(Br)c12 [Example 1, 5-Bromo-8-hydroxyquinazolin-4(3H)-one] | 500 nM | – |
| CCCS(=O)(=O)c1ccccc1-c1cc(O)c2nc[nH]c(=O)c2c1 [Example 249, 8-Hydroxy-6-(2-(propylsulfonyl)phenyl)quinazolin-4(3H)-one] | 3230 nM | – |
| O=c1[nH]cnc2c(O)cc(-c3ccccc3CCCN3CCCC3)cc12 [Example 242, 8-Hydroxy-6-(2-(3-(pyrrolidin-1-yl)propyl)phenyl)quinazolin-4(3H)-one] | 220 nM | – |
| O=c1[nH]cnc2c(O)cc(-c3cncnc3)cc12 [Example 153, 8-Hydroxy-6-(pyrimidin-5-yl)quinazolin-4(3H)-one 2,2,2-trifluoroacetate] | 190 nM | – |
| O=c1[nH]cnc2c(O)cc(-c3ccc(Cl)cc3)cc12 [Example 131, 6-(4-Chlorophenyl)-8-hydroxyquinazolin-4(3H)-one] | – | 40 nM |
| Cc1cc(F)ccc1-c1cc(O)c2nc[nH]c(=O)c2c1 [Example 127, 6-(4-Fluoro-2-methylphenyl)-8-hydroxyquinazolin-4(3H)-one] | 20 nM | – |
| COc1ncccc1-c1cc(O)c2nc[nH]c(=O)c2c1 [Example 162, 8-Hydroxy-6-(2-methoxypyridin-3-yl)quinazolin-4(3H)-one] | 30 nM | – |
| COCc1ncccc1-c1cc(O)c2nc[nH]c(=O)c2c1 [Example 110, 8-Hydroxy-6-(2-(methoxymethyl)pyridin-3-yl)quinazolin-4(3H)-one bis(2,2,2-trifluoroacetate)] | 20 nM | – |
| Cc1cccc(Cc2cc(O)c3nc[nH]c(=O)c3c2)c1 [Example 12, 8-Hydroxy-6-(3-methylbenzyl)quinazolin-4(3H)-one] | 1470 nM | – |
| O=c1[nH]cnc2c(O)cc(Br)c(Cl)c12 [Example 117, 6-Bromo-5-chloro-8-hydroxyquinazolin-4(3H)-one] | 40 nM | – |
| Cc1ncccc1-c1cc(O)c2nc[nH]c(=O)c2c1 [Example 138, 8-hydroxy-6-(2-methylpyridin-3-yl)quinazolin-4(3H)-one] | 20 nM | – |
| CC(C)c1cc(O)c2nc[nH]c(=O)c2c1 [Example 13, 8-Hydroxy-6-isopropylquinazolin-4(3H)-one] | 1000 nM | – |
| Cc1nc(-c2cc(O)c3nc[nH]c(=O)c3c2)cs1 [Example 85, 8-Hydroxy-6-(2-methylthiazol-4-yl)quinazolin-4(3H)-one] | 170 nM | – |
| O=c1[nH]cnc2c(O)cc(-c3cc(F)c(F)c(F)c3)cc12 [Example 28, 8-Hydroxy-6-(3,4,5-trifluorophenyl)quinazolin-4(3H)-one] | – | 40 nM |
| COCCn1nccc1-c1cc(O)c2nc[nH]c(=O)c2c1 [Example 45, 8-Hydroxy-6-(1-(2-methoxyethyl)-1H-pyrazol-5-yl)quinazolin-4(3H)-one] | 30 nM | – |
